For one compound, IC50 results are on record in ChEMBL document CHEMBL1150586, “Goniolactones A-F, six new styrylpyrone derivatives from the roots of Goniothalamus cheliensis” (J Nat Prod, 2002).

Type in all cases: functional, cell-based
One experiment deals with KB. Nature of the experiment: Cytotoxicity against human KB cells after 5 days by MTT assay. The conditions noted are these: 120 h.
The next experiment relates to HCT-8. Put plainly: Cytotoxicity against human HCT8 cells after 5 days by MTT assay. The conditions noted are these: HCT-8, 120 h.
In a further experiment the test system is A2780. Put plainly: Cytotoxicity against human A2780 cells after 5 days by MTT assay. As to conditions: A2780, 120 h.

Each structure is given as a SMILES string.

For `O=C1C=CC[C@H]([C@H](O)[C@@H](c2ccccc2)c2c(O)cc3c(c2O)C(=O)C[C@@H](c2ccccc2)O3)O1` [GONIOLACTONE B], the IC50 was determined as 7.23 µM in the experiment on KB, 4.43 µM with HCT-8 and 7.4 µM with A2780.
